What was measured:
[1] = system: U87MG pLVX-IDH2 R140Q-neo cells; experiment: U87MG pLVX-IDH2 R140Q-neo cell based assay (2-HG by LC-MS); settings: Homo sapiens, U-87 MG
Protocol: U87MG pLVX-IDH2 R140Q-neo cells are grown in T125 flasks in DMEM containing 10% FBS, 1× penicillin/streptomycin and 500 μg/mL G418. They are harvested by trypsin and seeded into 96 well white bottom plates at a density of 5000 cell/well in 100 μl/well in DMEM with 10% FBS. No cells are plated in columns 1 and 12. Cells are incubated overnight at 37° C. in 5% CO2. The next day compounds are made up at 2× concentration and 100 ul are added to each cell well. The final concentration of DMSO is 0.2% and the DMSO control wells are plated in row G. The plates are then placed in the incubator for 48 hours. At 48 hours, 100 ul of media is removed from each well and analyzed by LC-MS for 2-HG concentrations. The cell plate is placed back in the incubator for another 24 hours. At 72 hours post compound addition, 10 mL/plate of Promega Cell Titer Glo reagent is thawed and mixed. The cell plate is removed from the incubator and allowed to equilibrate to room temperature. Then 100 ul of reagent is added to each well of media. The cell plate is then placed on an orbital shaker for 10 minutes and then allowed to sit at room temperature for 20 minutes. The plate is then read for luminescence with an integration time of 500 ms to determine compound effects on growth inhibition.

IDH2 R140Q = target: T1, IDH2 R140Q (Homo sapiens, UniProt P48735, R140Q); experiment: IDH2 R140Q enzymatic assay (cofactor depletion, diaphorase/resazurin); assay type: biochemical; settings: 16 hours preincubation time
T1 sequence (P48735 40-452 R140Q): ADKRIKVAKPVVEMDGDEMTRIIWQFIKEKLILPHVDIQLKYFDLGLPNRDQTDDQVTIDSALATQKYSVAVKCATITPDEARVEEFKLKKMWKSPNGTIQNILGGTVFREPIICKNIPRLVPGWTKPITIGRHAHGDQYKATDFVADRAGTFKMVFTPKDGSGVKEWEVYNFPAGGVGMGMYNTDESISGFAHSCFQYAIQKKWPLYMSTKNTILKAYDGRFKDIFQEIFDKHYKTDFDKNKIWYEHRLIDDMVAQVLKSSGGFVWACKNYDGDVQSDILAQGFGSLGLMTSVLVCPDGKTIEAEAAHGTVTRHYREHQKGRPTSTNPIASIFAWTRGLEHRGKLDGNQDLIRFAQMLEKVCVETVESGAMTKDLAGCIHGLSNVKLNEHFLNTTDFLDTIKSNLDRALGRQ

Nc1nc(Nc2ccnc(C(F)(F)F)c2)nc(-c2cccc(C(F)(F)F)n2)n1 [Compound 378, 6-(6-(trifluoromethyl)pyridin-2-yl)-N2-(2-(trifluoromethyl)pyridin-4-yl)-1,3,5-triazine-2,4-diamine]
IC50 [1]: < 50 nM
IC50 (IDH2 R140Q): < 50 nM

From US9724350B2, “N,6-bis(aryl or heteroaryl)-1,3,5-triazine-2,4-diamine compounds as IDH2 mutants inhibitors for the treatment of cancer” (Agios Pharmaceuticals, Inc., priority 2013, dated 2017)
